# Measurements as given in patent US20170267986A1, “GENERATION OF MANNOSE-6-PHOSPHATE CONTAINING RECOMBINANT ALPHA-N-ACETYL GLUCOSAMINIDASE” (SHIRE HUMAN GENETIC THERAPIES, INC., priority 2014, published 2017).
# How the values were obtained:
# Type in all cases: biochemical
# [1] = molecular target: T1, rhNaglu (Homo sapiens, UniProt P54802); assay: Naglu substrate analysis: hydrolysis of UDP-sugars by rhNaglu, PAD-HPLC; conditions: 0.8 mM UDP-sugar, rhNaglu 2.6 to 2,000 μg/ml, Tris pH 7.15, 37° C., 1 hour
# T1 construct: The N-terminal 23 amino acids are cleaved as the precursor protein enters the endoplasmic reticulum, resulting in a mature form; made in house; host or cells: human fibrosarcoma HT1080 cell clone over-expressing rhNaglu
# T1 sequence (P54802 24-743): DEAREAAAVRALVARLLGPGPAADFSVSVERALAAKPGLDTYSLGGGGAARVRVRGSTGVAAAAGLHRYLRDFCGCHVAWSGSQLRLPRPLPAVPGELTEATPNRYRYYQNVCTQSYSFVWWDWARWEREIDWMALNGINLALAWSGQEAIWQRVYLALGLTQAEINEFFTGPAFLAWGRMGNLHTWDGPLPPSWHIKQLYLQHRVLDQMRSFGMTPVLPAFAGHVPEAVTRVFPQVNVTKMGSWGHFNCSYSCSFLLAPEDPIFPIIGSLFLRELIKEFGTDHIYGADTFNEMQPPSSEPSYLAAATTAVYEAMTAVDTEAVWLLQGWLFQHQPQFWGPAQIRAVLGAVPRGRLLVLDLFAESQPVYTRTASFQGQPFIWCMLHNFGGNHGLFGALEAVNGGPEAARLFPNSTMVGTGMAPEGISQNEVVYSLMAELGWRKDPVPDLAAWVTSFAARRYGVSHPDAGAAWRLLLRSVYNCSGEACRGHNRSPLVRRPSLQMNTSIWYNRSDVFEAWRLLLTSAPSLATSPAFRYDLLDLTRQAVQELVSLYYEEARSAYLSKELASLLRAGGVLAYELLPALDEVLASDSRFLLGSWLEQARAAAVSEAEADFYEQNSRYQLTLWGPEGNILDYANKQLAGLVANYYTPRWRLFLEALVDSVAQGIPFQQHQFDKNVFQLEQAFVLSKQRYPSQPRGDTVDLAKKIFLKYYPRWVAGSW
# Experimental: Recombinant human Naglu was co-incubated with uridine diphosphate N-acetylglucosamine (UDP-GlcNAc) or uridine diphosphate N-acetyl galactosamine (UDP-GalNAc). UDP-GlcNAc, GlcNAc (N-acetylglucosamine) and UDP-GalNAc were detected using PAD-HPLC (Pulsed Amperometric Detection-High Pressure Liquid Chromatography) that was modified after Chavaroche et al. 2011.
# Recombinant human Naglu was dialyzed into Tris buffer (40 mM Tris pH 7.15, 100 mM NaCl, 4 mM MgCl2, and 4 mM MnCl2) and concentrated with VivaSpin® sample concentrators having a 30 kDa cut-off (Viva Products, Inc., Littleton, Mass.). […]
# Samples were then subjected to centrifugation at 10,000 rpm, and the resulting supernatants were loaded on PA10 columns and detected by PAD-HPLC (Pulsed Amperometric Detection-High Pressure Liquid Chromatography) (Dionex ICS-3000 Ion Chromatography System (Thermo Fisher Scientific, Inc., Sunnyvale, Calif.)). […] The peak areas for the eluted UDP-GlcNAc were measured, and the reductions of the area under the curve (AUC) in response to increased concentrations of rhNaglu were determined (FIG. 1A). A new peak at 10.7 minutes was detected on the chromatograms of samples treated with concentrations of rhNaglu of 23.4 μg/ml and above. […] The peak areas for the eluted GlcNAc were measured, and the increases of the AUC in response to increased concentrations of rhNaglu were determined (FIG. 1B). […]
# [2] = molecular target: T1, rhNaglu; assay: Naglu activity assay with various inhibitors (4MU-GlcNAc fluorescent substrate); conditions: added at 0.0625, 0.25, 1, 4 and 8 mM; 37° C., 1 hour, pH 4.5
# Experimental: A 10 mM stock of Naglu activity substrate solution was prepared by dissolving 5 mg of substrate, i.e., 4-methylumbelliferyl-N-acetyl-α-D-glucosaminide, in 250 μl of 100% DMSO. Naglu activity assay reaction buffer (0.1 M sodium acetate, 0.5 mg/ml BSA, pH 4.5) was then added to bring the volume up to 1318 μl. This 10 mM substrate stock solution was then diluted 10 fold with reaction buffer to make the final 1 mM substrate solution.
# Samples and controls were pre-diluted in reaction buffer. 10 μl of each pre-diluted sample/control were applied in duplicate wells on a black clear bottom 96 well plate. 75 μl of 1 mM substrate solution containing various concentrations of inhibitors were added to each well. The plates were sealed with plate sealer and wrapped with aluminum foil. The plates were then placed in a Boekel Jitterbug Microplate Incubator Shaker (Cole-Parmer, Vernon Hills, Ill.) and shaken (setting at #1) at 37° C. for 1 hour. 200 μl of Stop Buffer (0.2 M Glycine, pH 10.7) were then added to all of the wells and fluorescence emission (excitation/emission at 360 nm/460 nm, respectively) was measured using a SpectraMax® Plus M2 plate reader from Molecular Devices (Sunnyvale, Calif.).
# To further confirm that rhNaglu could hydrolyze UDP-GlcNAc, we investigated whether UDP-GlcNAc inhibited the hydrolysis by rhNaglu of the fluorescent substrate 4MU-GlcNAc (4-methylumbelliferyl-N-acetyl-α-D-glucosaminide) in a Naglu activity assay. Briefly, UDP-GlcNAc, as well as GlcNAc, UDP-GalNAc and Glucosamine, were added to the Naglu activity assay at 0.0625, 0.25, 1, 4 and 8 mM concentrations. The fluorescence emitted from these samples was compared to control samples only including rhNaglu and 4MU-GlcNAc.
# [3] = molecular target: T1, rhNaglu; assay: Isothermal titration calorimetry (ITC) of UDP-GlcNAc hydrolysis by rhNaglu; conditions: preliminary ITC data
# Description: The reduction of the UDP-GlcNAc substrate in the samples containing rhNaglu (FIG. 3A) and the formation of the reaction product GlcNAc in the samples containing rhNaglu (FIG. 3B) was apparent. The reductions of UDP-GlcNAc and the formation of GlcNAc were dependent on the initial concentration of UDP-GlcNAc in the reaction sample.
substance,measurement,setting,value
uridine diphosphate N-acetylglucosamine [UDP-GlcNAc],hydrolysis by rhNaglu,[1],hydrolyses
same,inhibition of rhNaglu activity toward 4MU-GlcNAc,[2],Inhibition
same,Km of hydrolysis by rhNaglu,[3],milimolar range
